Test results as given in US12195427B2, “MASP-2 inhibitors and methods of use” (priority 2018, dated 2025).
Structures can show the parent of a compound that is named as a salt.

Biological target: MASP-2 CCP2-SP (Homo sapiens (Human), UniProt O00187)
Test: MASP-2 co-crystallization, X-ray crystallography and structure analysis (H-bonds, van der Waals contacts);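 on Ligand-pharmacophore element distance, pharmacophore element C2: distance from averaged pharmacophore element to bound ligand; missing value means element absent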;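 on Ligand-pharmacophore element distance, pharmacophore element C3: distance from averaged pharmacophore element to bound ligand; missing value means element absent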;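 on Ligand-pharmacophore element distance, pharmacophore element C4: distance from averaged pharmacophore element to bound ligand; missing value means element absent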;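 on Ligand-pharmacophore element distance, pharmacophore element C5: distance from averaged pharmacophore element to bound ligand; missing value means element absent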
Set-up: van der Waals contact distance, MASP-2 HIS 483 atom CD2 / van der Waals contact distance, MASP-2 HIS 483 atom NE2 / van der Waals contact distance, SER 654 C to compound atom / van der Waals contact distance, SER 654 O to compound atom / van der Waals contact distance, TRP 655 C to compound atom / van der Waals contact distance, MASP-2 GLY 528 atom CA / van der Waals contact distance TRP 655 atom CZ3 / van der Waals contact distance TRP 655 atom N / van der Waals contact distance TRP 655 atom CE3 / van der Waals contact distance GLY 656 atom C / van der Waals contact distance GLY 656 atom CA / van der Waals contact distance GLY 656 atom O / van der Waals contact distance, MASP-2 TYR 607 atom CD1 / van der Waals contact distance, MASP-2 PRO 606 atom O / d(C3,CA1) / d(CA1,N1)2 / d(H4,O1) / d(H4,O2) / d(O1,O2) / d(CA1,O2) / d(CA6,O1) / d(CA6,O2) / d(CA1,C5) / d(O2,H3) / d(N2,C2) / d(CA5,N2) / d(N2,C4) / d(N2,C6) / d(N2,CA3) / d(N2,O3) / d(O4,H2): unit not given beside the values
Conditions: for H-bond distance to MASP-2 ASP 627 atom OD2: ASP 627 OD2; for H-bond distance to MASP-2 GLY 656 atom N: GLY 656 N; for H-bond distance to MASP-2 GLY 656 atom O: GLY 656 O; for H-bond distance to MASP-2 SER 628 atom O: SER 628 O; for H-bond distance to MASP-2 SER 654 atom O: SER 654 O; for H-bond distance to MASP-2 SER 657 atom O: SER 657 O; for van der Waals contact distance, MASP-2 HIS 483 atom CD2 / van der Waals contact distance, MASP-2 HIS 483 atom NE2: Table A2-1; for van der Waals contact distance, SER 654 O to compound atom / van der Waals contact distance, TRP 655 CA to compound atom: Table A2-12; for van der Waals contact distance TRP 655 atom CE3: MASP-2 TRP 655 CE3, compound atom in line below; for van der Waals contact distance TRP 655 atom CZ3: MASP-2 TRP 655 CZ3; for Ligand-pharmacophore element distance, pharmacophore element C2 / Ligand-pharmacophore element distance, pharmacophore element C3 / Ligand-pharmacophore element distance, pharmacophore element C4 / Ligand-pharmacophore element distance, pharmacophore element C5 / Ligand-pharmacophore element distance, pharmacophore element C6 / Ligand-pharmacophore element distance, pharmacophore element C7 / Ligand-pharmacophore element distance, pharmacophore element CA1 / Ligand-pharmacophore element distance, pharmacophore element CA2 / Ligand-pharmacophore element distance, pharmacophore element CA3 / Ligand-pharmacophore element distance, pharmacophore element CA4 / Ligand-pharmacophore element distance, pharmacophore element CA5 / Ligand-pharmacophore element distance, pharmacophore element CA6: Table A4-1; for d(C3,CA1) / d(CA1,N1)2 / d(CA1,O1) / d(CA1,O2) / d(H4,O1) / d(H4,O2) / d(O1,O2): Table A5-1 pharmacophore: distance between elements, S2/S1 region; for a(C3, CA1, O1) / a(CA1, O1, O2) / a(O1, O2, H4) / a(N1, CA1, O1) b): Table A6-1 pharmacophore angle; for a(N1, CA1, O1) b): Methyl-amino-pyridine compounds; for a(O1, O2, H3) / a(O1, O2, N2) / a(O2, N2, CA2): Table A6-2 pharmacophore angle; for Pharmacophore torsion angle a(C3, CA1, O1, H4) / Pharmacophore torsion angle a(H4, O1, O2, H3) / Pharmacophore torsion angle a(N1, CA1, O1, H4) / Pharmacophore torsion angle a(O1, H4, O2, CA1) / Pharmacophore torsion angle a(H4, O1, O2, N2): Table A7-1
How it was run: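 First, CCP2-SP constructs with or without a 6His tag are produced in E. coli. Crystals are then soaked once or twice with inhibitor, cryoprotected in 20% glycerol or frozen directly, and diffracted at synchrotron beamlines. Phasing uses molecular replacement with parts of 1Q3X.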

[1] = Table A2-7: SER 628 (CB, O, OG)
[2] = Table A2-9 second part, ARG 630, AA atoms N, NE, NH1
[3] = Table A5-2 pharmacophore distance, S3/S4 region
[4] = between pharmacophore elements of the bound compound
[5] = Table A7-2, between pharmacophore elements of the bound compound

Sequence of MASP-2 CCP2-SP (O00187 445-686): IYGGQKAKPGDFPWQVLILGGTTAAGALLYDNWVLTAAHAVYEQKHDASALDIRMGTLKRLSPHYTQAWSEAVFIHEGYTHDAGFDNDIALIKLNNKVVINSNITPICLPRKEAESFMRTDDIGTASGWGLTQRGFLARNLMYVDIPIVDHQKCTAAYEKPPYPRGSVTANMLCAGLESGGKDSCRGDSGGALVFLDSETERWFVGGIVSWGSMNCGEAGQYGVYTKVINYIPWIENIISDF
Sequence of MASP-2 CCP2-SP (O00187 364-432 partner): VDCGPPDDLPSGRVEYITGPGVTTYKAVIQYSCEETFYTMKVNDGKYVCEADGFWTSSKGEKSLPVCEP

## Cc1nc(N)ccc1CNC(=O)[C@H](C)NC(=O)c1cc(Cc2ccccc2)n[nH]1 [compound 1367, (S)—N-(1-(((6-Amino-2-methylpyridin-3-yl)methyl)amino)-1-oxopropan-2-yl)-3-benzyl-1H-pyrazole-5-carboxamide]
Table A1 (H-Bonds)
  H-bond distance to MASP-2 ASP 627 atom OD2: 3.15
  H-bond distance to MASP-2 GLY 656 atom N: 3.15
  H-bond distance to MASP-2 GLY 656 atom O: 2.77
  H-bond distance to MASP-2 SER 628 atom O: 3.15
  H-bond distance to MASP-2 SER 654 atom O: 3.08
  H-bond distance to MASP-2 SER 657 atom O: 2.88
  van der Waals contact distance, MASP-2 HIS 483 atom CD2: 3.71
  van der Waals contact distance, MASP-2 HIS 483 atom NE2: 3.59
  van der Waals contact distance, SER 654 O to compound atom: 3.87
  van der Waals contact distance, TRP 655 CA to compound atom: 3.29
  Ligand-pharmacophore element distance, pharmacophore element C2: 0
  Ligand-pharmacophore element distance, pharmacophore element C3: 0.13
  Ligand-pharmacophore element distance, pharmacophore element C4: 0
  Ligand-pharmacophore element distance, pharmacophore element C5: 0
  Ligand-pharmacophore element distance, pharmacophore element C6: 0
  Ligand-pharmacophore element distance, pharmacophore element C7: 0
  Ligand-pharmacophore element distance, pharmacophore element CA1: 0.5
  Ligand-pharmacophore element distance, pharmacophore element CA2: 0.57
  Ligand-pharmacophore element distance, pharmacophore element CA3: 0
  Ligand-pharmacophore element distance, pharmacophore element CA4: 0
  Ligand-pharmacophore element distance, pharmacophore element CA5: 3.27
  Ligand-pharmacophore element distance, pharmacophore element CA6: 0
  d(C3,CA1): 2.85
  d(CA1,N1)2: 1.39
  d(CA1,O1): 4.35
  d(CA1,O2): 5.37
  d(H4,O1): 4.37
  d(H4,O2): 5.63
  d(O1,O2): 4.72
  a(C3, CA1, O1): 149.67
  a(CA1, O1, O2): 129.48
  a(O1, O2, H4): 125.36
  a(N1, CA1, O1) b): 173.97
  a(O1, O2, H3): 107.78
Table A2-3
  van der Waals contact distance, MASP-2 PHE 529 atom CD2: 3.8
Table A2-6: SER 611 (CB, OG), ASP 627 (CG, OD1, OD2), SER 628 (C, CA)
  van der Waals contact distance, MASP-2 amino acid atom to compound atom: 3.71
[1]
  van der Waals contact distance, MASP-2 amino acid atom to compound atom: 3.56
Table A2-9, ARG 630, AA atoms CG, CZ
  van der Waals contact distance, MASP-2 amino acid atom to compound atom: 3.86
[2]
  van der Waals contact distance, MASP-2 amino acid atom to compound atom: 3.8
Table A2-11
  van der Waals contact distance, VAL 653 CG1 to compound atom: 3.35
Table A2-13
  van der Waals contact distance TRP 655 atom CE3: 3.89
  van der Waals contact distance TRP 655 atom CZ3: 3.86
[3]
  d(O2,H3): 2.68
[4]
  Pharmacophore torsion angle a(C3, CA1, O1, H4): 23.21
  Pharmacophore torsion angle a(H4, O1, O2, H3): 42.45
  Pharmacophore torsion angle a(N1, CA1, O1, H4): 1.25
  Pharmacophore torsion angle a(O1, H4, O2, CA1): −85.54

## CC(=O)Nc1ccc(CCN[C@H](CCc2ccccc2)C(=O)N[C@@H](C)C(=O)NCc2ccc(N)nc2C)cc1 [compound 1368, (R)-2-((4-Acetamidophenethyl)amino)-N—((S)-1-(((6-amino-2-methylpyridin-3-yl)methyl)amino)-1-oxopropan-2-yl)-4-phenylbutanamide Dihydrochloride]
Table A1 (H-Bonds)
  H-bond distance to MASP-2 ASP 627 atom OD2: 3.24
  H-bond distance to MASP-2 GLY 656 atom N: 3.07
  H-bond distance to MASP-2 SER 628 atom O: 3.16
  H-bond distance to MASP-2 SER 654 atom O: 3.04
  H-bond distance to MASP-2 SER 657 atom O: 2.94
Table A1 (H-Bonds), PRO 606 O
  H-bond distance to MASP-2 PRO 606 atom O: 3.21
  van der Waals contact distance, MASP-2 HIS 483 atom CD2: 3.86
  van der Waals contact distance, MASP-2 HIS 483 atom NE2: 3.67
  van der Waals contact distance, SER 654 O to compound atom: 3.85
  van der Waals contact distance, TRP 655 CA to compound atom: 3.29
  Ligand-pharmacophore element distance, pharmacophore element C2: 0
  Ligand-pharmacophore element distance, pharmacophore element C3: 0.16
  Ligand-pharmacophore element distance, pharmacophore element C4: 0
  Ligand-pharmacophore element distance, pharmacophore element C5: 0
  Ligand-pharmacophore element distance, pharmacophore element C6: 0
  Ligand-pharmacophore element distance, pharmacophore element C7: 0
  Ligand-pharmacophore element distance, pharmacophore element CA1: 0.62
  Ligand-pharmacophore element distance, pharmacophore element CA2: 0.95
  Ligand-pharmacophore element distance, pharmacophore element CA3: 0
  Ligand-pharmacophore element distance, pharmacophore element CA4: 0
  Ligand-pharmacophore element distance, pharmacophore element CA5: 2.23
  Ligand-pharmacophore element distance, pharmacophore element CA6: 0
  d(C3,CA1): 2.86
  d(CA1,N1)2: 1.39
  d(CA1,O1): 4.30
  d(CA1,O2): 8.92
  d(H4,O1): 4.34
  d(H4,O2): 8.84
  d(O1,O2): 7.07
  a(C3, CA1, O1): 149.59
  a(CA1, O1, O2): 151.69
  a(O1, O2, H4): 127.75
  a(N1, CA1, O1) b): 173.57
  a(O1, O2, H3): 119.72
  a(O1, O2, N2): 74.03
  a(O2, N2, CA2): 145.05
Table A2-3
  van der Waals contact distance, MASP-2 PHE 529 atom CE2: 3.79
  van der Waals contact distance, MASP-2 PHE 529 atom CZ: 3.71
Table A2-4
  van der Waals contact distance, MASP-2 PRO 606 atom CB: 3.6
  van der Waals contact distance, MASP-2 PRO 606 atom O: 3.75
[1]
  van der Waals contact distance, MASP-2 amino acid atom to compound atom: 3.63
Table A2-11
  van der Waals contact distance, VAL 653 CG1 to compound atom: 3.32
Table A2-13
  van der Waals contact distance TRP 655 atom CE3: 3.52
  van der Waals contact distance TRP 655 atom CZ3: 3.87
[3]
  d(CA5,N2): 4.47
  d(N2,CA2): 6.36
  d(O2,H3): 7.79
  d(O2,N2): 4.30
[4]
  Pharmacophore torsion angle a(C3, CA1, O1, H4): 22.95
  Pharmacophore torsion angle a(H4, O1, O2, H3): 40.86
  Pharmacophore torsion angle a(H4, O1, O2, N2): 68.19
  Pharmacophore torsion angle a(N1, CA1, O1, H4): −2.26
  Pharmacophore torsion angle a(O1, H4, O2, CA1): −74.89
[5]
  Pharmacophore torsion angle a(O1, O2, N2, CA2): −100.57
  Pharmacophore torsion angle a(O1, O2, N2, CA5): 124.36

## C[C@H](NC(=O)[C@H]1C[C@H](Cc2ccccc2)CN1)C(=O)NCc1cc(Cl)ccc1-n1cnnn1 [compound 1371, (2R,4S)-4-Benzyl-N—((S)-1-((5-chloro-2-(1H-tetrazol-1-yl)benzyl)amino)-1-oxopropan-2-yl)pyrrolidine-2-carboxamide Hydrochloride]
Table A1 (H-Bonds)
  H-bond distance to MASP-2 GLY 656 atom N: 3.18
  H-bond distance to MASP-2 GLY 656 atom O: 2.75
  H-bond distance to MASP-2 SER 654 atom O: 2.86
  H-bond distance to MASP-2 SER 657 atom O: 2.96
  van der Waals contact distance, MASP-2 HIS 483 atom CD2: 3.55
  van der Waals contact distance, MASP-2 HIS 483 atom NE2: 3.61
  Ligand-pharmacophore element distance, pharmacophore element C2: 0
  Ligand-pharmacophore element distance, pharmacophore element C3: 0
  Ligand-pharmacophore element distance, pharmacophore element C4: 0
  Ligand-pharmacophore element distance, pharmacophore element C5: 0.48
  Ligand-pharmacophore element distance, pharmacophore element C6: 0
  Ligand-pharmacophore element distance, pharmacophore element C7: 0
  Ligand-pharmacophore element distance, pharmacophore element CA1: 0.58
  Ligand-pharmacophore element distance, pharmacophore element CA2: 0.46
  Ligand-pharmacophore element distance, pharmacophore element CA3: 0
  Ligand-pharmacophore element distance, pharmacophore element CA4: 0
  Ligand-pharmacophore element distance, pharmacophore element CA5: 0
  Ligand-pharmacophore element distance, pharmacophore element CA6: 0
  d(CA1,O1): 3.46
  d(CA1,O2): 3.72
  d(H4,O1): 3.13
  d(H4,O2): 3.66
  d(O1,O2): 3.25
  a(CA1, O1, O2): 121.03
  a(O1, O2, H4): 123.31
  a(O1, O2, H3): 136.64
  a(O1, O2, N2): 146.93
  a(O2, N2, CA2): 155.86
Table A2-2
  van der Waals contact distance, MASP-2 GLY 528 atom CA: 3.8
Table A2-3
  van der Waals contact distance, MASP-2 PHE 529 atom CD2: 3.86
  van der Waals contact distance, MASP-2 PHE 529 atom CE2: 3.89
[2]
  van der Waals contact distance, MASP-2 amino acid atom to compound atom: 3.44
Table A2-11
  van der Waals contact distance, SER 654 C to compound atom: 3.9
Table A2-13, MASP-2 GLY 656 C
  van der Waals contact distance GLY 656 atom C: 3.84
Table A2 section before Table A2-8
  van der Waals contact distance, MASP-2 amino acid atom to compound atom: 3.76
[3]
  d(N2,CA2): 5.90
  d(O2,H3): 1.96
  d(O2,N2): 2.79
[4]
  Pharmacophore torsion angle a(H4, O1, O2, H3): −165.12
  Pharmacophore torsion angle a(H4, O1, O2, N2): −174.11
  Pharmacophore torsion angle a(O1, H4, O2, CA1): −68.15
[5]
  Pharmacophore torsion angle a(O1, O2, N2, CA2): 136.54
